Test results reported in US9365583B2, “Substituted pyrazoles and uses thereof” (Genentech, Inc., priority 2013, dated 2016).

Target: T1, N-terminally GST-tagged DLK (catalytic domain amino acid 1-520) (Homo sapiens, UniProt Q12852)
T1 construct: N-terminally GST-tagged DLK (catalytic domain amino acid 1-520); purchased Carna Bioscience
T1 sequence (Q12852 1-520): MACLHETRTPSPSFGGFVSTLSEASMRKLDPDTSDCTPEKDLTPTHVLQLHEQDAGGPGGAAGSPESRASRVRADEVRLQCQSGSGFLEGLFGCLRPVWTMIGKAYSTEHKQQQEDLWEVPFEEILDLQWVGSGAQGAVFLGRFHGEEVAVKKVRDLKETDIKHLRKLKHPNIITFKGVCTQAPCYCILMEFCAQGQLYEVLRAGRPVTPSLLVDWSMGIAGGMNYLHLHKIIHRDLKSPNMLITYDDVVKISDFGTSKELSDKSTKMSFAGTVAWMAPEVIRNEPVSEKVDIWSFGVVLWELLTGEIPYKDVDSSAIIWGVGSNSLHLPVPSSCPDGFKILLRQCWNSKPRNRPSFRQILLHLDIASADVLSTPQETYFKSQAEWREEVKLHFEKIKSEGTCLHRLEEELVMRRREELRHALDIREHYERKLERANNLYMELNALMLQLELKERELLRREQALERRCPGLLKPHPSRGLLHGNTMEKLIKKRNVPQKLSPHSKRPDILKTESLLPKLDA
Assay: DLK TR-FRET inhibition assay
Assay type: biochemical
Settings: 5 nM GST-DLK, 40 nM HIS-MKK4 K131M substrate, 30 μM ATP, 60 minutes at ambient temperature
Summary of the method: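 Phosphorylated MKK4 was quantified by TR-FRET (Eu-labelled anti-phospho-MKK4, D2 anti-HIS; 3 h, 665 and 615 nm emission) after EDTA quench. Reactions held 5 nM GST-tagged DLK catalytic domain (1-520), 40 nM HIS-MKK4 K131M substrate, 30 μM ATP and compound (3-fold series from 20 uM), 60 min, room temperature, pH 7.5.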

Ki | SMILES
0.7 nM | COC1CN([C@H]2C[C@@H]3[C@H](C2)[C@H]3c2cc(-c3cnc(N)c(OC(F)F)c3)nn2CC2CC2)C1 [compound 154, 5-(1-(cyclopropylmethyl)-5-((1R,3r,5S,6r)-3-(3-methoxyazetidin-1-yl)bicyclo[3.1.0]hexan-6-yl)-1H-pyrazol-3-yl)-3-(difluoromethoxy)pyridin-2-amine]
3.3 nM | COC1CN([C@@H]2C[C@@H]3[C@H](C2)[C@H]3c2cc(-c3cnc(N)c(OC(F)F)c3)nn2CC2CC2)C1 [compound 155, 5-(1-(cyclopropylmethyl)-5-((1R,3s,5S,6r)-3-(3-methoxyazetidin-1-yl)bicyclo[3.1.0]hexan-6-yl)-1H-pyrazol-3-yl)-3-(difluoromethoxy)pyridin-2-amine]
3.1 nM | CC(C)n1nc(-c2cnc(N)c(OC(F)F)c2)cc1[C@H]1[C@@H]2C[C@@H](N3C4COCC3C4)C[C@@H]21 [compound 157, 5-(5-((1R,3s,5S,6r)-3-(3-oxa-6-azabicyclo[3.1.1]heptan-6-yl)bicyclo[3.1.0]hexan-6-yl)-1-isopropyl-1H-pyrazol-3-yl)-3-(difluoro-methoxy)pyridin-2-amine]
1.2 nM | CO[C@H]1CCN([C@H]2C[C@@H]3[C@H](C2)[C@H]3c2cc(-c3cnc(N)c(OC(F)F)c3)nn2CC2CC2)C1 [compound 158, 5-(1-(cyclopropylmcthyl)-5-((1R,3r,5S,6S)-3-((S)-3-methoxy-pyrrolidin-1-yl)bicyclo[3.1.0]hexan-6-yl)-1H-pyrazol-3-yl)-3-(difluoromethoxy)pyridin-2-amine]
1.9 nM | CO[C@H]1CCN([C@@H]2C[C@@H]3[C@H](C2)[C@H]3c2cc(-c3cnc(N)c(OC(F)F)c3)nn2CC2CC2)C1 [compound 159, 5-(1-(cyclopropylmethyl)-5-((1R,3s,5S,6S)-3-((S)-3-methoxy-pyrrolidin-l-yl)bicyclo[3.1.0]hexan-6-yl)-1H-pyrazol-3-yl)-3-(difluoromethoxy)pyridin-2-amine]
2.4 nM | Nc1ncc(-c2cc([C@H]3[C@@H]4C[C@@H](N5CCOCC5)C[C@@H]43)n(CC(F)F)n2)cc1OC(F)F [compound 160, 5-(1-(2,2-difluoroethyl)-5-((1R,3s,5S,6r)-3-morpholinobicyclo [3.1.0]hexan-6-yl)-1H-pyrazol-3-yl)-3-(difluoromethoxy) pyridin-2-amine]
2.5 nM | COCCN1CC[C@@]12C[C@@H]1[C@H](C2)[C@H]1c1cc(-c2cnc(N)c(C(F)(F)F)c2)nn1C(C)C [compound 161, 5-(1-isopropyl-5-((1′R,2r,5′S,6′r)-1-(2-methoxyethyl)spiro [azetidine-2,3′-bicyclo[3,1.0]hexan]-6′-yl)-1H-pyrazol-3-yl)-3-(trifluoro-methyl)pyridin-2-amine]
2.6 nM | CC(C)n1nc(-c2cnc(N)c(OC(F)F)c2)cc1[C@H]1[C@@H]2C[C@@]3(CCN3CC(F)F)C[C@@H]21 [compound 162, 5-(5-((1′R,2r,5′S,6′r)-1-(2,2-difluoro-ethyl)spiro[azetidine-2,3′-bicyclo[3.1.0]hexan]-6′-yl)-1-isopropyl-1H-pyrazol-3-yl)-3-(difluoro-methoxy)pyridin-2-amine]
3.3 nM | CC(C)n1nc(-c2cnc(N)c(OC(F)(F)F)c2)cc1[C@H]1[C@@H]2C[C@@H](N3C[C@@H]4C[C@H]3CO4)C[C@@H]21 [compound 164, 5-(5-((1R,3s,5S,6S)-3-((1S,4S)-2-oxa-5-azabicyclo[2.2.1]heptan-5-yl)bicyclo[3.1.0]hexan-6-yl)-1-isopropyl-1H-pyrazol-3-yl)-3-(trifluoromethoxy)pyridin-2-amine]
1.6 nM | Nc1ncc(-c2cc([C@H]3[C@@H]4C[C@@H](N5CCOCC5)C[C@@H]43)n(CC(F)F)n2)cc1OC(F)(F)F [compound 165, 5-(1-(2,2-difluoroethyl)-5-((1R,3s,5S,6r)-3-morpholinobicyclo [3.1.0]hexan-6-yl)-1H-pyrazol-3-yl)-3-(trifluoromethoxy) pyridin-2-amine]
6.7 nM | COCC1(F)C[C@@H]2[C@H](C1)[C@H]2c1cc(-c2cnc(N)c(C(F)(F)F)c2)nn1C(C)C (stereo partly drawn) [compound 166, 5-(5-((1R,5S,6r)-3-fluoro-3-(methoxymethyl)bicyclo[3.1.0]hexan-6-yl)-1-isopropyl-1H-pyrazol-3-yl)-3-(trifluoromethyl)pyridin-2-amine]
1.4 nM | CC(C)n1nc(-c2cnc(N)c(C(F)(F)F)c2)cc1[C@H]1[C@@H]2C[C@@H](N3C[C@@H]4C[C@H]3CO4)C[C@@H]21 [compound 167, 5-(5-((1R,3s,5S,6S)-3-((1S,4S)-2-oxa-5-azabicyclo[2.2.1]heptan-5-yl)bicyclo[3.1.0]hexan-6-yl)-1-isopropyl-1H-pyrazol-3-yl)-3-(trifluoromethyl)pyridin-2-amine]
2.7 nM | CC(C)n1nc(-c2cnc(N)c(OC(F)F)c2)cc1[C@H]1[C@@H]2C[C@H](OCC(C)(C)O)C[C@@H]21 [compound 168, 1-(((1R,3r,5S,6r)-6-(3-(6-ammo-5-(difluoromethoxy)pyridin-3-yl)-1-isopropyl-1H-pyrazol-5-yl)bicyclo[3.1.0]hexan-3-yl)oxy)-2-methylpropan-2-ol]
4.5 nM | CC(C)n1nc(-c2cnc(N)c(OC(F)F)c2)cc1[C@H]1[C@@H]2CC3(COC3)C[C@@H]21 [compound 170, 3-(difluoromethoxy)-5-(1-isopropyl-5-((1R,5S,6r)-spiro[bicyclo [3.1.0]hexane-3,3′-oxetan]-6-yl)-1H-pyrazol-3-yl)pyridin-2-amine]
1.8 nM | CC(C)N1CCN([C@@H]2C[C@@H]3[C@H](C2)[C@H]3c2cc(-c3cnc(N)c(OC(F)F)c3)nn2C(C)C)CC1 [compound 176, 3-(difluoromethoxy)-5-(1-isopropyl-5-((1R,3s,5S,6r)-3-(4-isopropyl-piperazin-1-yl)bicyclo[3.1.0]hexan-6-yl)-1H-pyrazol-3-yl) pyridin-2-amine]
1.1 nM | CC(C)N1CCN([C@H]2C[C@@H]3[C@H](C2)[C@H]3c2cc(-c3cnc(N)c(OC(F)F)c3)nn2C(C)C)CC1 [compound 177, 3-(difluoromethoxy)-5-(1-isopropyl-5-((1R,3r,5S,6r)-3-(4-isopropyl-piperazin-1-yl)bicyclo[3.1.0]hexan-6-yl)-1H-pyrazol-3-yl) pyridin-2-amine]
4.3 nM | CC(C)n1nc(-c2cnc(N)c(C(F)(F)F)c2)cc1[C@H]1[C@@H]2C[C@H](N3CCN(C)C4(COC4)C3)C[C@@H]21 [compound 179, 5-(1-isopropyl-5-((1R,3r,5S,6r)-3-(5-methyl-2-oxa-5,8-diazaspiro [3.5]nonan-8-yl)bicyclo[3.1.0]hexan-6-yl)-1H-pyrazol-3-yl)-3-(trifluoromethyl)pyridin-2-amine]
5.8 nM | CC(C)n1nc(-c2cnc(N)c(C(F)(F)F)c2)cc1[C@H]1[C@@H]2C[C@@H](N3CCN(C)C4(COC4)C3)C[C@@H]21 [compound 180, 5-(1-isopropyl-5-((1R,3s,5S,6r)-3-(5-methyl-2-oxa-5,8-diazaspiro [3.5]nonan-8-yl)bicyclo[3.1.0]hexan-6-yl)-1H-pyrazol-3-yl)-3-(trifluoromethyl)pyridin-2-amine]
2.4 nM | CC(C)n1nc(-c2cnc(N)c(OC(F)F)c2)cc1[C@H]1[C@@H]2C[C@H](N3CCOCC(F)(F)C3)C[C@@H]21 [compound 181, 5-(5-((1R,3r,5S,6r)-3-(6,6-difluoro-1,4-oxazepan-4-yl)bicyclo [3.1.0]hexan-6-yl)-1-isopropyl-1H-pyrazol-3-yl)-3-(difluoromethoxy) pyridin-2-amine]
3 nM | CC(=O)N(C)[C@H]1C[C@@H]2[C@H](C1)[C@H]2c1cc(-c2cnc(N)c(C(F)(F)F)c2)nn1C(C)C [compound 182, N-((1R,5S,6r)-6-(3-(6-amino-5-(trifluoromethyl)pyridin-3-yl)-1-isopropyl-1H-pyrazol-5-yl)bicyclo [3.1.0]hexan-3-yl)-N-methylacetamide]
4.5 nM | CC(C)n1nc(-c2cnc(N)c(OC(F)F)c2)cc1[C@H]1[C@@H]2C[C@@H](N3CCOCC(F)(F)C3)C[C@@H]21 [compound 183, 5-(5-((1R,3s,5S,6r)-3-(6,6-difluoro-1,4-oxazepan-4-yl)bicyclo [3.1.0]hexan-6-yl)-1-isopropyl-1H-pyrazol-3-yl)-3-(difluoro-methoxy)pyridin-2-amine]
1.6 nM | CO[C@@H]1CCN([C@H]2C[C@@H]3[C@H](C2)[C@H]3c2cc(-c3cnc(N)c(C(F)(F)F)c3)nn2C(C)C)C1 [compound 185, 5-(1-isopropyl-5-((1R,3r,5S,6R)-3-((R)-3-methoxypyrrolidin-1-yl)bicyclo[3.1.0]hexan-6-yl)-1H-pyrazol-3-yl)-3-(trifluoromethyl) pyridin-2-amine]
1.6 nM | CO[C@@H]1CCN([C@H]2C[C@@H]3[C@H](C2)[C@H]3c2cc(-c3cnc(N)c(OC(F)F)c3)nn2C(C)C)C1 [compound 186, 3-(difluoromethoxy)-5-(1-isopropyl-5-((1R,3r,5S,6R)-3-((R)-3-methoxypyrrolidin-1-yl)bicyclo [3.1.0]hexan-6-yl)-1H-pyrazol-3-yl)pyridin-2-amine]
